Data published in patent US20230233577A1, “17Beta-ESTRADIOL/VITAMIN C MOLECULAR COMPLEX, PREPARATION METHOD, AND USE THEREOF” (ZHEJIANG MEDICINE CO., LTD.XINCHANG PHARMACEUTICAL FACTORY, priority 2020, published 2023).
Marks after values point to notes of the source that are not given here.

Legend:
Type in all cases: in vivo, ICR mice
[1] = tested on: ovariectomized female mice; experiment: Uterine weight (endometrial hyperplasia side effect) in ovariectomized female mice; conditions: for Uterine weight (mean ± SD): ovariectomized mice, oral, n = 11
[2] = tested on: ovariectomized female mice; experiment: Tail bleeding time (thrombosis side effect) in ovariectomized female mice; conditions: for Bleeding time (tail, mean ± SD): ovariectomized mice, oral, 30 min after last administration, n = 11
[3] = tested on: ovariectomized female mice; experiment: Femoral ash weight in ovariectomized female mice; conditions: oral, 4 weeks, n = 11
[4] = tested on: ovariectomized female mice; experiment: Femoral calcium content in ovariectomized female mice (OCPC method); conditions: oral, 4 weeks, n = 11
[5] = tested on: ovariectomized female mice; experiment: Trabecular bone density in ovariectomized female mice (CT of left femur); conditions: oral, 4 weeks, n = 11
[6] = tested on: ovariectomized female mice; experiment: Femoral length and ratio of femoral ash weight to femoral length in ovariectomized female mice; conditions: oral, 4 weeks, n = 11
[7] = tested on: ovariectomized female mice; experiment: Pathological sections of oviduct walls, endometria and uterine glands of ovariectomized female mice
Experimental: Pathological sections of oviduct walls, endometria, and uterine glands of ovariectomized female mice were prepared to evaluate the influence of the complex on the oviduct walls, endometria, and uterine glands of the ovariectomized mice.

[8] = tested on: ovariectomized female mice; experiment: Femoral dry weight in ovariectomized female mice; conditions: oral, 4 weeks, n = 11
[9] = tested on: ovariectomized female mice; experiment: Femoral mineral content (BMC, ash weight/dry weight) in ovariectomized female mice; conditions: ratio femoral ash weight/dry weight, oral, 4 weeks, n = 11
[10] = at both doses of 2.3 μmol/kg/day and 0.23 μmol/kg/day
[11] = ovariectomized mouse treated at 2.3 μmol/kg/day
[12] = summary of pathological sections FIG. 3A to FIG. 8E

Thickness of endometrium (pathological section) [7, 11]: 23.08 μm | Thickness of oviduct wall (pathological section) [7, 11]: 152.11 μm | Lesions of uterine glands (in words) [7, 12]: could cause lesions of uterine glands
SMILES: C[C@]12CC[C@@H]3c4ccc(O)cc4CC[C@H]3[C@@H]1CC[C@@H]2O [17β-estradiol]
Effect on uterine weight (in words) [1, 10]: significantly increased the uterine weight | Uterine weight (mean ± SD) ([1]; dose 0.23 μmol/kg): 0.200 ± 0.041^a g | Uterine weight (mean ± SD) ([1]; dose 2.3 μmol/kg): 0.207 ± 0.045^a g | Effect on tail bleeding time (in words) [2, 10]: significantly shortened the tail bleeding time | Bleeding time (tail, mean ± SD) ([2]; dose 0.23 μmol/kg/day): 640.6 ± 189.6^a s | Bleeding time (tail, mean ± SD) ([2]; dose 2.3 μmol/kg/day): 659.1 ± 203.8^a s | Femoral ash weight (mean ± SD) ([3]; dose 0.23 μmol/kg/day): 29.08 ± 5.42^b mg | Femoral ash weight (mean ± SD) ([3]; dose 2.3 μmol/kg/day): 33.37 ± 3.21^a mg | Femoral calcium content (mean ± SD) ([4]; dose 0.23 μmol/kg/day): 23.34 ± 0.70% | Femoral calcium content (mean ± SD) ([4]; dose 2.3 μmol/kg/day): 24.57 ± 1.85^a % | Trabecular bone density (mean ± SD) ([5]; dose 0.23 μmol/kg/day): 595.35 ± 30.47^d mg/cm^3 | Trabecular bone density (mean ± SD) ([5]; dose 2.3 μmol/kg/day): 748.57 ± 33.37^a mg/cm^3 | Ash weight/length (mean ± SD) ([6]; dose 0.23 μmol/kg/day): 1.72 ± 0.22 mg/mm | Ash weight/length (mean ± SD) ([6]; dose 2.3 μmol/kg/day): 2.02 ± 0.20^a mg/mm | Uterine gland pathology (in words) [7, 11]: the density of the tissue around the uterine gland is significantly reduced | Thickening of endometria and oviduct walls (in words) [7, 12]: could induce the thickening of endometria and oviduct walls | Femoral dry weight (mean ± SD) ([8]; dose 0.23 μmol/kg/day): 49.08 ± 6.02^b mg | Femoral dry weight (mean ± SD) ([8]; dose 2.3 μmol/kg/day): 54.42 ± 2.96^a mg | BMC (femoral mineral content, mean ± SD) ([9]; dose 0.23 μmol/kg/day): 0.560 ± 0.041 mg/mg | BMC (femoral mineral content, mean ± SD) ([9]; dose 2.3 μmol/kg/day): 0.620 ± 0.020^a mg/mg
